Data set [1] deals with C13* cisplatin-resistant ovarian cancer cells. Put plainly: MTT cytotoxicity test, cisplatin-resistant C13*. The class given is cell-based, human. The conditions noted are these: for IC50: C13* cisplatin-resistant, 72 h, MTT, ± S.D.; for RF (resistance factor): IC50 resistant (C13*) / parent line (2008). As for the experimental part: The cytotoxic properties of the complexes were also evaluated in a pair of tumor cell lines suitably selected for their sensitivity and resistance to cisplatin (adenocarcinoma cells 2008/C13^*). Cross-resistance profiles were evaluated by means of the resistance factor (RF), defined as the ratio between IC50 values calculated for the resistant cells and those obtained with the sensitive ones (Table 2). The phenomenon of cisplatin resistance is multifactorial in nature.
(§1) Cisplatin was dissolved in 0.9% NaCl solution.
(§2) Human breast (MCF-7), colon (HCT-15), lung (A549) and pancreatic (BxPC3) carcinoma cell lines together with melanoma (A375) cells were obtained from American Type Culture Collection (ATCC, Rockville, MD). The human ovarian cancer cell line 2008 and its cisplatin resistant variant, C13*, were kindly provided by Prof. G. Marverti (Department of Biomedical Science of Modena University, Italy). Human cervical carcinoma (A431) cells were kindly provided by Prof. F. Zunino (Division of Experimental Oncology B, Istituto Nazionale dei Tumori, Milan, Italy). Cell lines were maintained in the logarithmic phase at 37 °C in a 5% carbon dioxide atmosphere using the following culture media containing 10% fetal calf serum (Euroclone, Milan, Italy), antibiotics (50 units/mL penicillin and 50 μg/mL streptomycin) and 2 mM L-glutamine: (i) RPMI-1640 medium (Euroclone) for 2008, C13*, MCF-7, HCT-15, A431 and BxPC3 cells, (ii) F-12 HAM’S (Sigma Chemical Co.) for A549 cells, iii) DMEM (Sigma Chemical Co.) for A375 cells.
(§3) The growth inhibitory effect toward tumor cells was evaluated by means of the MTT assay. Briefly, (3–8) × 10^3 cells/well, dependent upon the growth characteristics of the cell line, were seeded in 96-well microplates in growth medium (100 μL). After 24 h, the medium was removed and replaced with fresh medium containing the compound to be studied at the appropriate concentration. Triplicate cultures were established for each treatment. After 24, 48, or 72 h, each well was treated with 10 μL of a 5 mg/mL MTT saline solution and, after 5 h of incubation, 100 μL of a sodium dodecylsulfate (SDS) solution in 0.01 M HCl was added. After an overnight incubation, cell growth inhibition was detected by measuring the absorbance of each well at 570 nm using a Bio-Rad 680 microplate reader. The mean absorbance for each drug dose was expressed as a percentage of the control, untreated well absorbance and plotted vs drug concentration. The IC50 values, the drug concentrations that decrease the mean absorbance at 570 nm to 50% of that of untreated control wells, were calculated from the dose–response curves with the four-parameter logistic model (4PL). The final value is the mean ± S.D. of at least three independent experiments performed in triplicate.
(In general: Formazan colour is commonly taken as a measure of viable cells.)

For data set [2], the system named is MCF-7 breast carcinoma cells. The experiment in a line: MTT cytotoxicity test, MCF-7. The class given is cell-based, human. The conditions noted are these: MCF-7, 72 h, ± S.D. As for the experimental part:
(§4) The cytotoxic activity of the complexes and of the uncoordinated ligands was evaluated by the MTT test on a panel of human tumor cell lines containing examples of pancreatic (BxPC3), colorectal (HCT-15), breast (MCF-7), cervical (A431), and lung (A549) cancers as well as of melanoma (A375). For comparison purposes, the cytotoxicity of cisplatin was evaluated under the same experimental conditions.
as §1, §2, §3

For data set [3], the system named is A549 lung carcinoma cells. Put plainly: cells. The conditions noted are these: for IC50: A549, 72 h, MTT, ± S.D. As for the experimental part:
as §4, §1, §2, §3

Data set [4] has as its system HCT-15 colon carcinoma cells. The experiment in a line: MTT cytotoxicity test, HCT-15. The class given is cell-based, human. To be noted: for IC50: HCT-15, 72 h, MTT, ± S.D.; for times more effective than cisplatin: HCT-15 cells. As for the experimental part:
as §4, §1, §2, §3

The subject of the next data set is A375 cells. The experiment in a line: ROS production (CM-H2DCFDA probe). The class given is cell-based, human. To be noted: A375, 12.5 μM, compared with antimycin positive control. As for the experimental part:
ROS are products of normal cell metabolism but their levels can be increased upon exposure to toxic agents or interference with the cellular redox network. […] Consequently, cellular ROS levels upon treatment with equal doses (12.5 μM) of the different platinum complexes were monitored in A375 cancer cells by using the peroxide-sensitive fluorescent probe CM-H2DCFDA (5-(and-6)-chloromethyl-2′,7′-dichlorodihydrofluorescein diacetate, acetyl ester). Antimycin, a classical inhibitor of the mitochondrial respiratory chain at the level of complex III, was used as a positive control.
Figure 8 ROS production in A375 cells. Cells were preincubated in PBS/10 mM glucose medium for 20 min at 37 °C in the presence of 10 μM CM-DCFDA and then treated with equimolar doses (12.5 μM) of indole propionic acid Pt(IV) derivatives (panel A) or indole acetic acid Pt(IV) derivatives (panel B). The fluorescence of DCF was measured.
The production of ROS was measured in A375 cells (10^4 per well) grown for 24 h in 96-well plates in DMEM medium without phenol red (Sigma Chemical Co.). Cells were then washed with PBS and loaded with 10 μM 5-(and-6)-chloromethyl-2′,7′-dichlorodihydrofluorescein diacetate, acetyl ester (CM–H2DCFDA) (Molecular Probes-Invitrogen) for 25 min in the dark. Afterwards, cells were washed with PBS and incubated with increasing concentrations of the tested complexes. The fluorescence increase was estimated with a plate reader (Fluoroskan Ascent FL, Labsystem, Finland) at 485 (excitation) and 527 nm (emission). Antimycin (3 μM, Sigma Chemical Co.), a potent inhibitor of Complex III in the electron transport chain, was used as positive control.

Data set [5] concerns A431 cervical carcinoma cells. Put plainly: MTT cytotoxicity test, A431. It counts as cell-based, human. To be noted: A431, 72 h, ± S.D. As for the experimental part:
as §4, §1, §2, §3

A further data set relates to A375 melanoma cells. Put plainly: MTT cytotoxicity test, A375. The class given is cell-based, human. To be noted: A375, 72 h, ± S.D. As for the experimental part:
as §4, §1, §2, §3

Data set [6] is described as follows: Log P octanol/water, shake flask method with ICP-MS. The class given is physicochemical. The conditions noted are these: n-octanol / 0.9% NaCl water, Pt by ICP-MS. As for the experimental part: Partition coefficients (logP values) for octanol/water partition were determined in order to examine whether a correlation exists between lipophilicity and accumulation into cells. The log P values obtained (Table 3) give the trend in lipophilicity as mono indole acid complex < succinate complex < acetate complex < bis indole acid complex < benzoate complex for both the IAA and the IPA series.
The logP values of the Pt(IV) compounds were determined using the shake flask method. The respective Pt(IV) complex was dissolved in 0.9% NaCl (w/v) ultrapure water (presaturated with n-octanol). The solutions were sonicated and filtered to remove undissolved Pt(IV) compounds. The initial Pt concentrations were determined by ICP-MS. Subsequently, the Pt(IV) solutions were added to an equal volume of n-octanol (presaturated with 0.9% NaCl (w/v) ultrapure water). The heterogeneous mixtures were shaken vigorously for 30 min before centrifuging at 4000 rpm for 30 min to achieve phase separation. The final Pt concentration in the aqueous phase was determined again by ICP-MS. The logarithm of the ratio of Pt concentrations in the organic and aqueous phases was calculated to determine the logP values. All experiments were done in duplicate.

Regarding `CC(=O)[O][Pt]([NH2])([NH2])([Cl])([Cl])[O]C(=O)Cc1c[nH]c2ccccc12` [Complex 5A], the IC50 in data set [1] is 46.6 ± 3.41 µM; in data set [2], 43.26 ± 0.22 µM; in data set [3], 2.8 ± 0.09 µM; in data set [4], 44.75 ± 0.07 µM; in data set [5], 3.07 ± 0.31 µM; in the data set with A375 melanoma cells it was 26.9 ± 4.04 µM. Also, the “RF (resistance factor)” value in data set [1] came to 1.1. Besides, the “ROS production (in words)” value in the data set with A375 cells was “did not alter the cellular ROS concentration”. For the same molecule, in data set [6], the “Log P (octanol/water)” value is recorded as −0.130 ± 0.05.

As for `[NH2][Pt]([NH2])([OH])([Cl])([Cl])[O]C(=O)CCc1c[nH]c2ccccc12` [Complex 1P, cis,cis,trans-[Pt(NH3)2Cl2(IPA)(OH)]], the half-inhibitory concentration (IC50) in data set [1] turned out to be 1.14 ± 0.5 µM; in data set [2], 3.78 ± 0.16 µM; in data set [3], 2.66 ± 0.54 µM; in data set [4], 3.66 ± 0.91 µM; in data set [5] it was 1.62 ± 0.34 µM; in the data set on A375 melanoma cells, 0.76 ± 0.02 µM. In data set [1], the “RF (resistance factor)” value worked out at 0.8. The “times more cytotoxic than cisplatin” value in data set [3] was “four times”. Moreover, the “times more effective than cisplatin” value in data set [4] is reported as “about two times”. Besides, the “ROS production (in words)” value in the data set on A375 cells is recorded as “superior to that induced by antimycin”. Further, the “Log P (octanol/water)” value in data set [6] is reported as −0.110 ± 0.05.

In the case of `[NH2][Pt]([NH2])([Cl])([Cl])([O]C(=O)Cc1c[nH]c2ccccc12)[O]C(=O)c1ccccc1` [Complex 3A], the IC50 in data set [1] was determined as 6.52 ± 1.96 µM; in data set [2], 3.76 ± 0.76 µM; in data set [3], 2.59 ± 0.13 µM; in data set [4], 3.67 ± 1.31 µM; in data set [5], 6.31 ± 0.94 µM; with A375 melanoma cells it was 3.53 ± 0.6 µM. Besides, the “RF (resistance factor)” value in data set [1] is 0.7. In data set [6], the “Log P (octanol/water)” value was −0.037 ± 0.04.

As to `[NH2][Pt]([NH2])([OH])([Cl])([Cl])[O]C(=O)Cc1c[nH]c2ccccc12` [Complex 1A], the IC50 in data set [1] was 2.51 ± 1.5 µM; in data set [2], 3.62 ± 0.94 µM; in data set [3] it was 3.62 ± 0.23 µM; in data set [4] it was 9 ± 3.13 µM; in data set [5], 2.1 ± 1.04 µM; in the data set with A375 melanoma cells, 1.31 ± 0.82 µM. Further, the “RF (resistance factor)” value in data set [1] came to 0.9. Moreover, the “times more cytotoxic than cisplatin” value in data set [3] was “four times”. In data set [4], the “times more effective than cisplatin” value is listed as “about two times”. Moreover, in data set [6], the “Log P (octanol/water)” value was −0.220 ± 0.04.

Regarding `[NH2][Pt]([NH2])([Cl])([Cl])([O]C(=O)CCC(=O)O)[O]C(=O)Cc1c[nH]c2ccccc12` [Complex 4A], the IC50 in data set [1] was greater than 50 µM; in data set [2] it was greater than 50 µM; in data set [3] it was 18.1 ± 4.32 µM; in data set [4] it was greater than 50 µM; in data set [5], 3.94 ± 0.57 µM; in the data set with A375 melanoma cells, 48.5 ± 1.48 µM. Besides, the “ROS production (in words)” value in the data set with A375 cells is “did not alter the cellular ROS concentration”. Also, in data set [6], the “Log P (octanol/water)” value is −0.190 ± 0.06.

The IC50 is the midpoint of a concentration-inhibition curve. A high value points to weaker potency.

For the origin of these results see publication PMC4941645, “Oxidative Stress Induced by Pt(IV) Pro-drugs Based on the Cisplatin Scaffold and Indole Carboxylic Acids in Axial Position” (Scientific Reports, 2016).
